What is called DC50 is the midpoint of the concentration-degradation curve. The low end stands for a more potent degrader, the high end for a less potent degrader. The term Emax denotes the size of the effect at its maximum, as opposed to the concentration needed.

For this experiment, the target named is BRAF^V600E protein (Homo sapiens, UniProt P15056, V600E). The experiment in a line: HiBiT cellular BRAF V600E degradation assay. The settings on record: 24 h incubation; for DC50: A375.10 cells (HiBiT tag knocked in at N-terminal of BRAF V600E), concentration at which 50% of total cellular BRAF V600E is degraded; for Emax: A375.10 cells, Emax = amount of residual protein remaining in the cell after compound treatment, read-out: HiBit 24 h Emax. The class given is cell-based. A general note: The HiBiT peptide binds its large partner to form an active luciferase.
Chain of BRAF^V600E protein (P15056 whole entry V600E): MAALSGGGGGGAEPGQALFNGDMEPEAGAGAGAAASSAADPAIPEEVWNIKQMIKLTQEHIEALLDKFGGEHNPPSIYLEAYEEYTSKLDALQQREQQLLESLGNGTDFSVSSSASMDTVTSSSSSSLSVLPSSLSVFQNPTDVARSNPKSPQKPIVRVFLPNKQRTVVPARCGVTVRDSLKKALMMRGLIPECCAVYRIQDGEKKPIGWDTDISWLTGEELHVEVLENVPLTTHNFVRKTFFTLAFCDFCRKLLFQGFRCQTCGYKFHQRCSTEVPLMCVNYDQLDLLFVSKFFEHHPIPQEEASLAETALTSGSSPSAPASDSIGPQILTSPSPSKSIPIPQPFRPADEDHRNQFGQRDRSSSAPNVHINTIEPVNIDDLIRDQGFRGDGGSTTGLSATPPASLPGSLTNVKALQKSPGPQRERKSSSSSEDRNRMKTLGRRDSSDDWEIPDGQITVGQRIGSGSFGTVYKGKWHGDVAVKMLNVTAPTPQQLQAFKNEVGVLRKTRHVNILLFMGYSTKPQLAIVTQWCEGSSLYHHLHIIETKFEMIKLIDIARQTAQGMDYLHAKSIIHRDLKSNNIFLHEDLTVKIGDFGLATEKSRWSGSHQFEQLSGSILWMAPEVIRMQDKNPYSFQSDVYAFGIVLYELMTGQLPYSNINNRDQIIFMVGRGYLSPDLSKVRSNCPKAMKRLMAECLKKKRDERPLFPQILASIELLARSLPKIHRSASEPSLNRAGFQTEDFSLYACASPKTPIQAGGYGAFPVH

As to `CCN(C)S(=O)(=O)Nc1ccc(F)c(C(=O)c2c[nH]c3ncc(-c4cnc(N5CCCN(C(=O)CN6CCC(c7ccc(NC8CCC(=O)NC8=O)cc7)CC6)CC5)nc4)cc23)c1F` (centres unmarked) [Example 63, 5-[2-[4-[2-[4-[4-[(2,6-dioxo-3-piperidyl)amino]phenyl]-1-piperidyl]acetyl]-1,4-diazepan-1-yl]pyrimidin-5-yl]-3-[3-[[ethyl(methyl)sulfamoyl]amino]-2,6-difluoro-benzoyl]-1H-pyrrolo[2,3-b]pyridine], the DC50 was 40.2 nM and the maximum response (Emax) stood at 11.8%.
The like results for `CCN(C)S(=O)(=O)Nc1ccc(F)c(C(=O)c2c[nH]c3ncc(-c4ccc(CN5CCN(C(=O)CN6CCN(c7cccc(NC8CCC(=O)NC8=O)c7)CC6)CC5)cc4)cc23)c1F` (centres unmarked) [Example A25, 5-[4-[[4-[2-[4-[3-[(2,6-Dioxopiperidin-3-yl)amino]phenyl]piperazin-1-yl]acetyl]piperazin-1-yl]methyl]phenyl]-3-[3-[[ethyl(methyl)sulfamoyl]amino]-2,6-difluorobenzoyl]-1H-pyrrolo[2,3-b]pyridine; 2,2,2-trifluoroacetic acid] were, in that order, 101 nM and 18%.
Taken in the same sequence, the figures for `CCN(C)S(=O)(=O)Nc1ccc(F)c(C(=O)c2c[nH]c3ncc(-c4ccc(C5=CCN(C(=O)CC6CCN(c7ccc(NC8CCC(=O)NC8=O)cc7)CC6)CC5)cc4)cc23)c1F` (centres unmarked) [Example 92, 5-[4-[1-[2-[1-[4-[(2,6-dioxo-3-piperidyl)amino]phenyl]-4-piperidyl]acetyl]-3,6-dihydro-2H-pyridin-4-yl]phenyl]-3-[3-[[ethyl(methyl)sulfamoyl]amino]-2,6-difluoro-benzoyl]-1H-pyrrolo[2,3-b]pyridine] were 22.9 nM and 4.78%.
For the compound `CCN(C)S(=O)(=O)Nc1ccc(F)c(C(=O)c2c[nH]c3ncc(-c4ccc(N5CCN(C(=O)CC6(O)CCN(c7ccc8c(N9CCC(=O)NC9=O)nn(C)c8c7)CC6)CC5)cc4)cc23)c1F` [Example 202, 3-(2,4-dioxohexahydropyrimidin-1-yl)-6-[4-[2-[4-[4-[3-[3-[[ethyl(methyl)sulfamoyl]amino]-2,6-difluoro-benzoyl]-1H-pyrrolo[2,3-b]pyridin-5-yl]phenyl]piperazin-1-yl]-2-oxo-ethyl]-4-hydroxy-1-piperidyl]-1-methyl-indazole], the DC50 turned out to be 2.1 nM and the Emax was 7.44%.
The like results for `CCN(C)S(=O)(=O)Nc1cccc(C(=O)c2c[nH]c3ncc(-c4ccc(N5CCN(C(=O)CN6CCC(c7ccc(NC8CCC(=O)NC8=O)cc7)CC6)CC5)nc4)cc23)c1Br` (centres unmarked) [Example A114, 3-[2-Bromo-3-[[ethyl(methyl)sulfamoyl]amino]benzoyl]-5-[6-[4-[2-[4-[4-[(2,6-dioxopiperidin-3-yl)amino]phenyl]piperidin-1-yl]acetyl]piperazin-1-yl]pyridin-3-yl]-1H-pyrrolo[2,3-b]pyridine] were, in that order, 8.83 nM and 7.68%.
The like results for `CCN(C)S(=O)(=O)Nc1ccc(F)c(C(=O)c2c[nH]c3ncc(-c4ccc(N5CCN(C(=O)CC6(O)CCN(c7ccc(NC8CCC(=O)NC8=O)cc7F)CC6)CC5)cc4)cc23)c1Cl` (centres unmarked) [Example 155, 3-[2-chloro-3-[[ethyl(methyl)sulfamoyl]amino]-6-fluoro-benzoyl]-5-[4-[4-[2-[1-[4-[(2,6-dioxo-3-piperidyl)amino]-2-fluoro-phenyl]-4-hydroxy-4-piperidyl]acetyl]piperazin-1-yl]phenyl]-1H-pyrrolo[2,3-b]pyridine] were, in that order, 6.33 nM and 10.9%.
Taken in the same sequence, the figures for `CCN(C)S(=O)(=O)Nc1ccc(F)c(C(=O)c2c[nH]c3ncc(-c4cnc(N5CCN(C(=O)CC6(O)CCN(c7ccc(NC8CCC(=O)NC8=O)cc7F)CC6)CC5)nc4)cc23)c1F` (centres unmarked) [Example 59, 5-[2-[4-[2-[1-[4-[(2,6-dioxo-3-piperidyl)amino]-2-fluoro-phenyl]-4-hydroxy-4-piperidyl]acetyl]piperazin-1-yl]pyrimidin-5-yl]-3-[3-[[ethyl(methyl)sulfamoyl]amino]-2,6-difluoro-benzoyl]-1H-pyrrolo[2,3-b]pyridine] were 2.41 nM and 8.84%.

The values above are taken from patent publication US12559492B2, “BRAF degraders” (C4 Therapeutics, Inc., priority 2020, dated 2026).
